target: cruzipain (Trypanosoma cruzi, UniProt P25779); assay: biochemical; conditions: 50 pM cruzipain, pH 5.5, 15 minutes preincubation, 2 μM Z-Phe-Arg-AMC substrate
Method: The assay solutions were mixed and incubated for 15 minutes at room temperature prior to the addition of 2 μM of Z-Phe-Arg-AMC substrate. […] Percent of inhibition were calculated by fitting experimental values to standard mathematical model for dose response curve.

cruzipain, sequence (P25779 123-467): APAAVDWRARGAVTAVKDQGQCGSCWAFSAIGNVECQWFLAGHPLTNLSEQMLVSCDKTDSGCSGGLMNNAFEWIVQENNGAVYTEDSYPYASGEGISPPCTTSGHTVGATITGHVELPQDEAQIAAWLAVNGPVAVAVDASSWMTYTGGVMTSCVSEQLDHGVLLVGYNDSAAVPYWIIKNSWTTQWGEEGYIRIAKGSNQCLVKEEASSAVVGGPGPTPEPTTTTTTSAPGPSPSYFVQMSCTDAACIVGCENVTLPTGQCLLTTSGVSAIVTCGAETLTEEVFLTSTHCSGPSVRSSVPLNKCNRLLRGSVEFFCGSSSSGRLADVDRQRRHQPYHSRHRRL

Point of comparison: `CC(C)[C@H](N[C@@H](c1ccc(-c2ccc(S(C)(=O)=O)cc2)cc1)C(F)(F)F)C(=O)N[C@H](C#N)Cc1c(F)cc(C#N)cc1F` [Example 72, (S)-N-[(S)-Cyano-(4-cyano-2,6-difluoro-benzyl)-methyl]-3-methyl-2-[(S)-2,2,2-trifluoro-1-(4,- methanesulfonyl-biphenyl-4-yl)-ethylamino]-butyramide], IC50 0.5 nM. Against it:
- CC(C)(F)C[C@H](N[C@@H](c1ccc(-c2ccc(C3(c4ncon4)CC3)cc2)cc1)C(F)(F)F)C(=O)N[C@H](C#N)Cc1ccccc1 [Example 29, (S)-4-Fluoro-4-methyl-2-{(S)-2,2,2-trifluoro-1-[4′-(1-[1,2,4]oxadiazol-3-yl-cyclopropyl)-biphenyl-4-yl]-ethylamino}-pentanoic acid ((S)-1-cyano-2-phenyl-ethyl)-amide] — 40-fold higher, 20 nM
- CC(C)(F)C[C@H](N[C@@H](c1ccc(-c2ccc(S(C)(=O)=O)cc2)cc1)C(F)(F)F)C(=O)N[C@H](C#N)Cc1ccc(F)cc1 [Example 16, (S)-4-Fluoro-4-methyl-2-[(S)-2,2,2-trifluoro-1-(4′-methanesulfonyl-biphenyl-4-yl)-ethylamino]-pentanoic acid [(S)-cyano-(4-fluoro-benzyl)-methyl]-amide] — 12-fold higher, 6.1 nM
- CC(C)(F)C[C@H](N[C@@H](c1ccc(-c2ccc(-c3ccc(S(C)(=O)=O)cc3)cc2)cc1)C(F)(F)F)C(=O)N[C@H](C#N)Cc1ccccc1 [Example 24, (S)-4-Fluoro-4-methyl-2-[(S)-2,2,2-trifluoro-1-(4-methanesulfonyl-[1,1′;4′,1″]terphenyl-4″-yl)-ethylamino]-pentanoic acid ((S)-benzyl-cyano-methyl)-amide] — 32-fold higher, 16 nM
- CC(C)(F)C[C@H](N[C@@H](c1ccc(-c2ccc(S(C)(=O)=O)cc2)cc1)C(F)(F)F)C(=O)N[C@H](C#N)Cc1ccc(C#N)cc1 [Example 3, (S)-4-Fluoro-4-methyl-2-[(S)-2,2,2-trifluoro-1-(4′-methanesulfonyl-biphenyl-4-yl)-ethylamino]-pentanoic acid [(S)-1-cyano-2-(4-cyano-phenyl)-ethyl]-amide] — 3-fold higher, 1.5 nM
- CCOC(=O)c1ccc(C[C@@H](C#N)NC(=O)[C@H](CC(C)(C)F)N[C@@H](c2ccc(-c3ccc(S(C)(=O)=O)cc3)cc2)C(F)(F)F)cc1 [Example 15, 4-((S)-2-Cyano-2-{(S)-4-fluoro-4-methyl-2-[(S)-2,2,2-trifluoro-1-(4′-methanesulfonyl-biphenyl-4-yl)-ethylamino]-pentanoylamino}-ethyl)-benzoic acid ethyl ester] — 8.8-fold higher, 4.4 nM
- CC(C)C[C@H](N[C@@H](c1ccc(Br)cc1)C(F)(F)F)C(=O)N[C@H](C#N)Cc1ccc(S(C)(=O)=O)cc1 [Example 9, (S)-2-[(S)-1-(4-Bromo-phenyl)-2,2,2-trifluoro-ethylamino]-4-methyl-pentanoic acid [(S)-1-cyano-2-(4-methanesulfonyl-phenyl)-ethyl]-amide] — within 1.5-fold, 0.6 nM
- CC(C)C[C@H](N[C@@H](c1ccc(-c2ccc(S(C)(=O)=O)cc2)cc1)C(F)(F)F)C(=O)NC(C#N)Cc1ccc(C#N)cc1 (stereo partly drawn) [Example 8, (S)-4-Methyl-2-[(S)-2,2,2-trifIuoro-1-(4′-methanesulfonyl-biphenyl-4-yl)-ethylamino]-pentanoic acid [1-cyano-2-(4-cyano-phenyl)-ethyl]-amide] — 2.5-fold lower, 0.2 nM
- CC(C)(F)C[C@H](N[C@@H](c1ccc(-c2ccc(S(C)(=O)=O)cc2)cc1)C(F)(F)F)C(=O)N[C@H](C#N)Cc1cccc[n+]1[O-] [Example 65, (S)-4-Fluoro-4-methyl-2-[(S)-2,2,2-trifluoro-1-(4′-methanesulfonyl-biphenyl-4-yl)-ethylamino]-pentanoic acid [(S)-cyano-(1-oxy-pyridin-2-ylmethyl)-methyl]-amide] — 30-fold higher, 15 nM
- CC(C)(F)C[C@H](N[C@@H](c1ccc(-c2ccc(S(C)(=O)=O)cc2)cc1)C(F)(F)F)C(=O)N[C@H](C#N)Cc1c(F)cc(Br)cc1F [Example 66, (S)-4-Fluoro-4-methyl-2-[(S)-2,2,2-trifluoro-1-(4′-methanesulfonyl-biphenyl-4-yl)-ethylamino]-pentanoic acid [(S)-(4-bromo-2,6-difluorobenzyl)-cyano-methyl]-amide] — 3.2-fold higher, 1.6 nM
- CC(C)(F)C[C@H](N[C@@H](c1ccc(-c2ccc(S(C)(=O)=O)cc2Cl)cc1)C(F)(F)F)C(=O)NC(C#N)Cc1ccc(C#N)cc1F (stereo partly drawn) [Example 7, (S)-2-[(S)-1-(2′-Chloro-4′-methanesulfonyl-biphenyl-4-yl)-2,2,2-trifluoro-ethylamino]-4-fluoro-4-methyl-pentanoic acid [1-cyano-2-(4-cyano-2-fluoro-phenyl)-ethyl]-amide] — 1.8-fold higher, 0.9 nM
- CC(C)(F)C[C@H](N[C@@H](c1ccc(-c2ccc(C3(C(=O)NCC(N)=O)CC3)cc2)cc1)C(F)(F)F)C(=O)N[C@H](C#N)Cc1ccccc1 [Example 55, 1-[4′-((S)-1-{(S)-1-[((S)-Benzyl-cyano-methyl)-carbamoyl]-3-fluoro-3-methyl-butylamino}-2,2,2-trifluoro-ethyl)-biphenyl-4-yl]-cyclopropanecarboxylic acid carbamoylmethyl-amide] — 3.8-fold higher, 1.9 nM
- CC(C)(F)C[C@H](N[C@@H](c1ccc(-c2ccc(C3(C(=O)N4CCOCC4)CC3)cc2)cc1)C(F)(F)F)C(=O)N[C@H](C#N)Cc1ccc(C#N)cc1F [Example 43, (S)-4-Fluoro-4-methyl-2-((S)-2,2,2-trifluoro-1-{4′-[1-(morpholine-4-carbonyl)-cyclopropyl]-biphenyl-4-yl}-ethylamino)-pentanoic acid [(S)-1-cyano-2-(4-cyano-2-fluoro-phenyl)-ethyl]-amide] — within 1.5-fold, 0.35 nM
- CC(C)C[C@H](N[C@@H](c1ccc(Br)cc1)C(F)(F)F)C(=O)N[C@H](C#N)Cc1ccc(C#N)cc1 [Example 21, (S)-2-[(S)-1-(4-Bromo-phenyl)-2,2,2-trifluoro-ethylamino]-4-methyl-pentanoic acid [(S)-1-cyano-2-(4-cyano-phenyl)-ethyl]-amide] — 1.9-fold higher, 0.94 nM
- CC(C)(F)C[C@H](N[C@@H](c1ccc(-c2ccc(S(C)(=O)=O)cc2)cc1)C(F)(F)F)C(=O)NC(C#N)Cc1ccc(C(F)(F)F)cc1F (stereo partly drawn) [Example 33, (S)-4-Fluoro-4-methyl-2-[(S)-2,2,2-trifluoro-1-(4′-methanesulfonyl-biphenyl-4-yl)-ethylamino]-pentanoic acid [cyano-(2-fluoro-4-trifluoromethyl-benzyl)-methyl]-amide] — 7-fold higher, 3.5 nM
- CC(C)(F)C[C@H](N[C@@H](c1ccc(-c2ccc([C@@H](O)C(F)F)cc2)cc1)C(F)(F)F)C(=O)NC(C#N)Cc1ccc(C(F)(F)F)cc1F (stereo partly drawn) [Example 37, (S)-2-{(S)-1-[4′-((R)-2,2-Difluoro-1-hydroxy-ethyl)-biphenyl-4-yl]-2,2,2-trifluoro-ethylamino}-4-fluoro-4-methyl-pentanoic acid [cyano-(2-fluoro-4-trifluoromethyl-benzyl)-methyl]-amide] — 19-fold higher, 9.3 nM
- CSc1ccc(-c2ccc([C@H](N[C@@H](CC(C)(C)F)C(=O)N[C@H](C#N)Cc3ccc(C#N)cc3F)C(F)(F)F)cc2)cc1 [Example 26, (S)-4-Fluoro-4-methyl-2-[(S)-2,2,2-trifluoro-1-(4′-methylsulfanyl-biphenyl-4-yl)-ethylamino]-pentanoic acid [(S)-1-cyano-2-(4-cyano-2-fluoro-phenyl)-ethyl]-amide] — 8.4-fold higher, 4.2 nM
- CC(C)(F)C[C@H](N[C@@H](c1ccc(-c2ccc(S(C)(=O)=O)cc2)cc1)C(F)(F)F)C(=O)N[C@H](C#N)Cc1cccnc1 [Example 64, (S)-4-Fluoro-4-methyl-2-[(S)-2,2,2-trifluoro-1-(4′-methanesulfonyl-biphenyl-4-yl)-ethylamino]-pentanoic acid ((S)-cyano-pyridin-3-ylmethyl-methyl)-amide] — 25-fold higher, 12.6 nM
- CC(C)(F)C[C@H](N[C@@H](c1ccc(-c2ccc(S(C)(=O)=O)cc2)cc1)C(F)(F)F)C(=O)N[C@H](C#N)Cc1cc[n+]([O-])cc1 [Example 75, (S)-4-Fluoro-4-methyl-2-[(S)-2,2,2-trifluoro-1-(4′-methanesulfonyl-biphenyl-4-yl)-ethylamino]-pentanoic acid [(S)-cyano-(1-oxy-pyridin-4-ylmethyl)-methyl]-amide] — 240-fold higher, 120 nM
- CC(C)(F)C[C@H](N[C@@H](c1ccc(-c2ccc(-c3ccncc3)cc2)cc1)C(F)(F)F)C(=O)N[C@H](C#N)Cc1ccc(C#N)cc1F [Example 39, (S)-4-Fluoro-4-methyl-2-[(S)-2,2,2-trifluoro-1-(4′-pyridin-4-yl-biphenyl-4-yl)-ethylamino]-pentanoic acid [(S)-1-cyano-2-(4-cyano-2-fluoro-phenyl)-ethyl]-amide] — within 1.5-fold, 0.6 nM
- CC(C)(F)C[C@H](N[C@@H](c1ccc(-c2ccc(C3(C(=O)NC4CC4)CC3)cc2)cc1)C(F)(F)F)C(=O)N[C@H](C#N)Cc1ccccc1 [Example 56, 1-[4′-((S)-1-{(S)-1-[((S)-Benzyl-cyano-methyl)-carbamoyl]-3-fluoro-3-methyl-butylamino}-2,2,2-trifluoro-ethyl)-biphenyl-4-yl]-cyclopropanecarboxylic acid cyclopropylamide] — 7.4-fold higher, 3.7 nM
- CC(C)[C@H](N[C@@H](c1ccc(-c2ccc([C@@H](O)C(F)F)cc2)cc1)C(F)(F)F)C(=O)N[C@H](C#N)Cc1c(F)cc(C#N)cc1F [Example 73, (S)-N-[(S)-Cyano-(4-cyano-2,6-difluoro-benzyl)-methyl]-2-{(S)-1-[4,- ((R)-2,2-difluoro-1-hydroxy-ethyl)-biphenyl-4-yl]-2,2,2-trifluoro-ethylamino}-3-methyl-butyramide] — within 1.5-fold, 0.7 nM
- CC(C)[C@H](N[C@@H](c1ccc(-c2ccc(S(C)(=O)=O)cc2)cc1)C(F)(F)F)C(=O)N[C@H](C#N)Cc1ccc(C(F)(F)F)cc1F [Example 62, (S)-N-[(S)-Cyano-(2-fluoro-4-trifluoromethyl-benzyl)-methyl]-3-methyl-2-[(S)-2,2,2-trifluoro-1-(4′-methanesulfonyl-biphenyl-4-yl)-ethylamino]-butyramide] — within 1.5-fold, 0.4 nM
